Test results published in ChEMBL document CHEMBL1949662, “JBIR-94 and JBIR-125, antioxidative phenolic compounds from Streptomyces sp. R56-07” (J Nat Prod, 2012).

Tested on: Radical scavenging activity
Experiment: Antioxidant activity assessed as DPPH free radical scavenging activity after 30 mins
Format: functional

| IC50 [µM] | SMILES |
| --- | --- |
| 9 | Cc1c(C)c2c(c(C)c1O)CC[C@@](C)(CCC[C@H](C)CCC[C@H](C)CCCC(C)C)O2 [ALPHA-TOCOPHEROL] |
| 11.4 | COc1cc(CCC(=O)NCCCCNC(=O)CCc2ccc(O)c(OC)c2)ccc1O |
| 35.1 | CC(=O)NCCCCN(CCCNC(=O)CCc1ccc(O)cc1)C(=O)CCc1ccc(O)cc1 |
